This is an account of results in US20150291517A1, “BENZENESULFONAMIDE COMPOUNDS FOR SOMATIC EMBRYOGENESIS IN PLANTS” (priority 2012, published 2015).

Common to all, as to format: in vivo, Arabidopsis thaliana
Experiment [1] deals with Arabidopsis seedlings. In words: NAA induced somatic embryogenesis with or without C#3. The procedure:
The ability of C#3 to enhance embryogenesis in the presence of other auxins was tested; namely the synthetic auxin naphthalene-1-acetic acid (NAA). […] C#3 therefore enhances the developmental responses that are activated by auxin treatment. Compound C#3 is therefore able to potentiate the effect of other auxins.

The subject of a further experiment is germinating seeds. In words: Developmental competence: C#3 added at different time points after start of culture. Here is the method: The competence of an explant for in vitro regeneration is determined for a large part by its developmental state. The developmental competence of germinating seedlings to respond to C#3 was examined by adding C#3 at different time points after the start of culture. Seeds were stratified at 4° C. in media containing 1 μM 2,4-D. 25 μM C#3 or the equivalent volume of DMSO (control) was added to the media at different time points after the cultures were transferred to 25° C. The number of seedlings with somatic embryos was determined after two weeks of culture.

The subject of experiment [2] is Arabidopsis seedlings. In words: Time course of somatic embryo development, morphology and ENOD4L::GFP / LEC1::LEC1:GFP embryo markers. The procedure:
The effect of the compounds on seedlings, without 2,4-D, was tested by germinating seedlings on MS10 solidified with 1% agar, and supplemented with 25 μM compound or DMSO. The ENOD4L promoter comprises a 1035 bp promoter from Brassica napus (AB098076.1), which was cloned in front of green fluorescent protein (GFP). A 3110 bp DNA fragment comprising 1292 bp upstream of the LEC1 translational start site and the entire LEC1 protein coding region was cloned in front of green fluorescent protein (GFP). These vectors were transformed to Arabidopsis ecotype Columbia (Col-0).
Control and C#3-treated cultures were examined at different time points in their development to determine the effect of C#3 on the course of somatic embryo development. Differences between the control and C#3-treated cultures were visible at about four days of culture. The epidermal and cortex cells of the root elongation zone and hypocotyl in the control seedlings increased in size, but not in the C#3-treated seedlings. On the sixth day of culture the differences between the two cultures was more pronounced. […] Callus was present on the tips of the cotyledons in circa 10% of the control seedlings, and up to 70% of the C#3 treated seedlings. This callus comprised loose, large cells on the outside, and smaller, denser cells on the on inside.
The timing and location of somatic embryo formation in control and compound-treated cultures was examined in more detail using two early embryo expressed marker genes, ENOD4-like (ENOD4L::GFP), and LEAFY COTYLEDON1 (LEC1::LEC1:GFP). Expression of ENOD4L::GFP and LEC1:GFP in zygotic embryos was observed from the zygote- and two-celled embryo proper stage onward, respectively. […] The GFP-positive sectors increased in size over the next few days, and on the sixth day of culture, GFP-positive globular embryos could be distinguished. The only difference between the C#3-treated and control cultures with respect to embryo marker expression was the number of seedlings displaying GFP fluorescence, which was higher in the C#3-treated cultures.

The subject of experiment [3] is Arabidopsis seedlings. In words: Somatic embryogenesis from germinated Arabidopsis seeds in liquid medium with 1 μM 2,4-D (containers). The source says:
The chemical screen was based on a modified version of an Arabidopsis somatic embryogenesis protocol that uses germinated seeds as explants (see Kobayashi et al., 2010 Kobayashi T, Nagayama Y, Higashi K and Kobayashi M. (2010). Establishment of a tissue culture system for somatic embryogenesis from germinating embryos of Arabidopsis thaliana Plant Biotech. 27: 359-364). In the original protocol, seeds were germinated on solid medium for one day, then the embryos were removed from the seed coat and transferred to solid media containing 4.5 μM 2,4-D to stimulate somatic embryo development. In this example, the protocol is simplified by germinating and culturing the seeds continuously in liquid medium containing 1 μM 2,4-D. Under optimized culture conditions (circa 30 seeds in 30 ml medium in 100 ml containers) approximately 18% of Col0 seeds form somatic embryos.
Approximately 10 surface-sterilized Columbia (Col-0) seeds were added to each well. The seeds were stratified at 4° C. in the dark for two days and then grown in on a rotary shaker (100 rpm/min) on a 16 h/8 h day/night cycle at 25° C. The number of seedlings that formed somatic embryos was counted two weeks later. Candidate compounds identified in the first screen were reordered (Chembridge or Maybridge), and re-tested in a second screen under the same conditions as the primary screen, but with a larger sample number (one 96-well microtitre plate/compound). Positive compounds were analysed using ChemMine (http//bioweb.ucr.edu/ChemMineV2/), ChemSpider (http//www.chemsider.com/) and the ZINC database (http://zinc.docking.org) for analogues with a known biological function.
All subsequent experiments were performed under the conditions described above, but using 100 ml containers (Greiner) containing 30 ml of medium media using approximately 30 seeds/container. All hormones were ordered from Duchefa and Dicamba from Sigma-Aldrich.

Experiment [4] relates to Arabidopsis seedlings. Nature of the experiment: Somatic embryo formation at 0 to 2 μM 2,4-D with or without C#3. The source says:
2,4-D is widely used to induce somatic embryogenesis from plant explant. In Arabidopsis immature zygotic embryos occasionally form somatic embryos when grown in basal medium, while germinating embryos or other vegetative tissues are unable to form embryos. […] Compound #3 therefore potentiates the effect of auxin 2,4-D. As shown in the micrograph in FIG. 7B, at the lowest effective concentration of C#3, areas of dense, light green embryogenic tissue (arrows) were formed, rather than histodifferentiated, bipolar somatic embryos.

[5] abbreviates: 25 μM compound, 1 μM 2,4-D, FIG. 1.

For `O=C(O)Cc1cccc2ccccc12` [NAA, naphthalene-1-acetic acid, reference compound], in the experiment with Arabidopsis seedlings [1] (10 μM NAA, FIG. 8), the “frequency of somatic embryogenesis with NAA alone” value was “induced a low frequency of somatic embryogenesis”.
In the case of `Cc1ccccc1N(C)S(=O)(=O)c1ccc(Cl)cc1` [C#3, 4-chloro-N-methyl-N-(2-methylphenyl)benzenesulfonamide], the “effect on NAA induced somatic embryogenesis” value with Arabidopsis seedlings [1] (25 μM C#3 with 10 μM NAA) was “enhanced”. In addition, the “time of addition giving best response” value in the experiment on germinating seeds (25 μM C#3, 1 μM 2,4-D, scored after two weeks, FIG. 6) was “within the first two days of culture”. In the experiment with germinating seeds (25 μM C#3 added after four days of culture), the “enhancement of somatic embryogenesis on late addition” value was “reached control levels”. Also, the “number of seedlings displaying GFP fluorescence versus control” value in the experiment with Arabidopsis seedlings [2] (embryo marker expression) is “higher”. Moreover, the “first detection of ENOD4L::GFP and LEC1:GFP marker expression” value with Arabidopsis seedlings [2] (region of the shoot meristem) was “starting from day four of culture”. Besides, in the experiment on Arabidopsis seedlings [2] (sixth day of culture), the “callus formation in root/hypocotyl region” value is listed as “formed a large, connected mass of vascular-derived callus”; the “cell loosening and detachment in hypocotyl and root” value was “to a lesser extent than the control”. The “seedlings with callus on the tips of the cotyledons” value in the experiment on Arabidopsis seedlings [2] (sixth day of culture, control circa 10%) is “up to 70%”. The “number of embryogenic seedlings compared to control cultures” value in the experiment on Arabidopsis seedlings [2] (tenth day of culture) was “much higher”. Besides, in the experiment on Arabidopsis seedlings [3] (setting [5]), the “level of SE, percentage of seedlings with somatic embryos, compared to control of 1 μM 2,4-D alone” value is “significantly increases the level of SE” and the “potency as inducer of SE” value is on record as “particularly potent inducers”. The “seedlings with somatic embryo development” value in the experiment on Arabidopsis seedlings [3] (10 to 50 μM C#3, 1 μM 2,4-D, control circa 20%) was “approximately 70%”. Also, the “number of somatic embryo-producing seedlings in different Arabidopsis ecotypes” value with Arabidopsis seedlings [3] (ecotypes other than Col0) is on record as “enhanced the number of somatic embryo-producing seedlings”. Moreover, the “rank of percentage of seedlings with somatic embryos among screened compounds” value in the experiment on Arabidopsis seedlings [3] (in presence of 2,4-D) is “induced the highest percentage of seedlings with somatic embryos”. Further, in the experiment with Arabidopsis seedlings [3] (none to 50 μM, fixed 1 μM 2,4-D, FIG. 5), the “level of SE with increasing concentrations of compound” value is recorded as “increases the level of SE”. In addition, the “somatic embryo formation in the absence of 2,4-D” value with Arabidopsis seedlings [4] (25 μM C#3, no 2,4-D, FIG. 7A) is reported as “not able to induce somatic embryo formation”. Further, the “somatic embryo formation at all tested 2,4-D concentrations” value with Arabidopsis seedlings [4] (25 μM C#3, up to 2 μM 2,4-D) is “did enhance somatic embryo formation”.
Turning to `O=C(O)COc1ccc(Cl)cc1Cl` [2,4-D, 2,4 dichlorophenoxyacetic acid, reference compound], in the experiment with Arabidopsis seedlings [3] (1 μM 2,4-D alone, Col0, circa 30 seeds in 30 ml medium), the “seeds forming somatic embryos” value is “approximately 18%”.
